Test results published in patent US20210161997A1, “TREATING DISEASES VIA TARGETED MODULATION OF GENE SIGNALING NETWORKS” (Camp4 Therapeutics Corporation, priority 2018, published 2021).

Tests used:
Assay type in all cases: cell-based
LDLR = test: RNA-seq of LDLR expression in compound-treated primary human hepatocytes
Description: (§1) Human hepatocytes were obtained from two donors from Massachusetts General Hospital, namely MGH54 and MGH63, and one donor from Lonza, namely HUM4111B. Cryopreserved hepatocytes were cultured in plating media for 16 hours, transferred to maintenance media for 4 hours. Cultured on serum-free media for 2 hours, then a compound was added. The hepatocytes were maintained on the serum-free media for 16 hours prior to gene expression analysis. Primary human hepatocytes were stored in the vapor phase of a liquid nitrogen freezer (about −130° C.).
(§2) Human hepatocytes cultured as described above were plated in 24-well format, adding 375,000 cells per well in a volume of 500 ul plating medium. Four hours before treatment, cells were washed with PBS and the medium was changed to either: fresh maintenance medium (complete) or modified maintenance medium.
(§3) Compound stocks were prepared at 1000× final concentration and added in a 2-step dilution to the medium to reduce risk of a compound precipitating out of solution when added to the cells, and to ensure reasonable pipetting volumes. One at a time, each compound was first diluted 10-fold in warm (about 37° C.) modified maintenance medium (initial dilution=ID), mixed by vortexing, and the ID was diluted 100-fold into the cell culture (e.g. 5.1 ul into 1 well of a 24-well plate containing 0.5 mL medium). The plate was mixed by carefully swirling and after all wells were treated and returned to the incubator overnight. If desired, separate plates/wells were treated with vehicle-only controls and/or positive controls. If using multi-well plates, controls were included on each plate. After about 18 hours, cells were harvested for further analysis, e.g., ChIP-seq, RNA-seq, ATAC-seq, etc.
(§4) This protocol is a modified version of the following protocols: MagMAX mirVana Total RNA Isolation Kit User Guide (Applied Biosystems #MAN0011131 Rev B.0), NEBNext Poly(A) mRNA Magnetic Isolation Module (E7490), and NEBNext Ultra Directional RNA Library Prep Kit for Illumina (E7420) (New England Biosystems #E74901).
(§5) The MagMAX mirVana kit instructions (the section titled “Isolate RNA from cells” on pages 14-17) were used for isolation of total RNA from cells in culture. Two hundred μl of Lysis Binding Mix was used per well of the multiwell plate containing adherent cells (usually a 24-well plate).
(§6) For mRNA isolation and library prep, the NEBNext Poly(A) mRNA Magnetic Isolation Module and Directional Prep kit was used. RNA isolated from cells above was quantified, and prepared in […] of each sample in 50 μl of nuclease-free water. This protocol may be run in microfuge tubes or in a 96-well plate.
(§7) All pass filter reads from each sample were mapped against the human genome (assembly GRCh38/GCA_000001405.15 “no alt” analysis set merged with hs38d1/GCA_000786075.2) using two pass mapping via STAR version 2.5.3a (alignment parameters alignIntronMin=20; alignIntronMax=1000000; outFilterMismatchNmax=999; outFilterMismatchNoverLmax=0.05; outFilterType=BySJout; outFilterMultimapNmax=20; alignSJoverhangMin=8; alignSJDBoverhangMin=1; alignMatesGapMax=1000000) (Dobin et al., Bioinformatics (2012) 29(1):15-21). Genomic alignments were converted to transcriptome alignments based on reference transcript annotations from the Human GENCODE Gene Set release 24 (Harrow et al., Genome Res. (2012) 22(9): 1760-1774). Using unique and multimapped transcriptomic alignments, gene-level abundance estimates were computed using RSEM version 1.3.0 (Li and Dewey, BMC Bioinformatics (2011) 12:323) in a strand-aware manner, and including confidence interval sampling calculations, to arrive at posterior mean estimates (PME) of abundances (counts and normalized FPKM—fragments per kilobase of exon per million mapped fragments) from the underlying Bayesian model. Standard QC were applied (read integrity, mapping statistics, library complexity, fragment bias) to remove unsatisfactory samples.

ANGPTL3 = test: RNA-seq of ANGPTL3 expression in compound-treated primary human hepatocytes; details: primary human hepatocytes (Table 12)
Procedure, shortened: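 Cryopreserved primary human hepatocytes from three donors, plated at 375,000 cells/well, switched to complete or modified maintenance medium, then dosed with compound (stocks at 1000× final) for about 18 h. Poly(A) mRNA was sequenced directionally, mapped to GRCh38 with STAR, and gene-level abundance (counts, FPKM) estimated with RSEM against GENCODE 24.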

PCSK9 = test: RNA-seq of PCSK9 expression in compound-treated primary human hepatocytes
Description: as §1, §2, §3, §4, §5, §6, §7

SERPINC1 = test: RNA-seq of SERPINC1 expression in compound-treated primary human hepatocytes; details: significance FPKM ≥1, log 2(fold change) ≥0.5, q-value ≤0.05
Description: Human hepatocytes were obtained from two donors from Massachusetts General Hospital, namely MGH54 and MGH63, and one donor from Lonza, namely HUM4111B. Cryopreserved hepatocytes were cultured in plating media for 16 hours, transferred to maintenance media for 4 hours. Cultured on serum-free media for 2 hours, then a compound was added. The hepatocytes were maintained on the serum-free media for 16 hours prior to gene expression analysis. Primary human hepatocytes were stored in the vapor phase of a liquid nitrogen freezer (about -130° C.). Human hepatocytes cultured as described above were plated in 24-well format, adding 375,000 cells per well in a volume of 500 ul plating medium. Four hours before treatment, cells were washed with PBS and the medium was changed to either: fresh maintenance medium (complete) or modified maintenance medium. Compound stocks were prepared at 1000× final concentration and added in a 2-step dilution to the medium to reduce risk of a compound precipitating out of solution when added to the cells, and to ensure reasonable pipetting volumes. […] The plate was mixed by carefully swirling and after all wells were treated and returned to the incubator overnight. If desired, separate plates/wells were treated with vehicle-only controls and/or positive controls. If using multi-well plates, controls were included on each plate. After about 18 hours, cells were harvested for further analysis, e.g., ChIP-seq, RNA-seq, ATAC-seq, etc. This protocol is a modified version of the following protocols: MagMAX mirVana Total RNA Isolation Kit User Guide (Applied Biosystems #MAN0011131 Rev B.0), NEBNext Poly(A) mRNA Magnetic Isolation Module ([…]), and NEBNext Ultra Directional RNA Library Prep Kit for Illumina ([…]) (New England Biosystems #E74901). […] Two hundred μl of Lysis Binding Mix was used per well of the multiwell plate containing adherent cells (usually a 24-well plate). For mRNA isolation and library prep, the NEBNext Poly(A) mRNA Magnetic Isolation Module and Directional Prep kit was used. RNA isolated from cells above was quantified, and prepared in […] of each sample in 50 μl of nuclease-free water. This protocol may be run in microfuge tubes or in a 96-well plate. […] Genomic alignments were converted to transcriptome alignments based on reference transcript annotations from the Human GENCODE Gene Set release 24 (Harrow et al., Genome Res. […] Using unique and multimapped transcriptomic alignments, gene-level abundance estimates were computed using RSEM version 1.3.0 (Li and Dewey, BMC Bioinformatics (2011) 12:323) in a strand-aware manner, and including confidence interval sampling calculations, to arrive at posterior mean estimates (PME) of abundances (counts and normalized FPKM-fragments per kilobase of exon per million mapped fragments) from the underlying Bayesian model. Standard QC were applied (read integrity, mapping statistics, library complexity, fragment bias) to remove unsatisfactory samples. Differential gene expression was computed using the negative binomial model implemented by DESeq2 version 1.16.1 (Love et al., Genome Biol. (2014) 15(12):550). […] RNA-seq signals were also normalized by read depth and visualized using the UCSC browser. To identify small molecules that modulate target gene expression, primary human hepatocytes were prepared as a monoculture, and at least one small molecule compound was applied to the cells. RNA-seq was performed to determine the effects of the compounds on the expression of the target genes in hepatocytes. Fold change was calculated by dividing the level of expression in the cell system that had been perturbed by the level of expression in an unperturbed system.

UGT1A1 = test: RNA-seq of UGT1A1 expression in compound-treated primary human hepatocytes
Procedure, shortened: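 Cryopreserved primary human hepatocytes from three donors were plated in 24-well format, then treated with compound diluted from 1000× stocks in serum-free maintenance medium for about 16–18 h. Poly(A) RNA-seq log2 fold change was computed against vehicle/pan-experiment controls. Significance required FPKM ≥1, log2FC ≥0.5 and q ≤0.05.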

SLC37A4 = test: RNA-seq of SLC37A4 expression in compound-treated primary human hepatocytes
Description: as §1, §2, §3, §4, §5, §6, §7

NOTCH2 = test: RNA-seq of NOTCH2 expression in compound-treated primary human hepatocytes; details: primary human hepatocytes
Description: (§8) Human hepatocytes were obtained from two donors from Massachusetts General Hospital, namely MGH54 and MGH63, and one donor from Lonza, namely HUM4111B. Cryopreserved hepatocytes were cultured in plating media for 16 hours, transferred to maintenance media for 4 hours. Cultured on serum-free media for 2 hours, then a compound was added. The hepatocytes were maintained on the serum-free media for 16 hours prior to gene expression analysis. Primary human hepatocytes were stored in the vapor phase of a liquid nitrogen freezer (about -130° C.). Human hepatocytes cultured as described above were plated in 24-well format, adding 375,000 cells per well in a volume of 500 ul plating medium. Four hours before treatment, cells were washed with PBS and the medium was changed to either: fresh maintenance medium (complete) or modified maintenance medium. Compound stocks were prepared at 1000× final concentration and added in a 2-step dilution to the medium to reduce risk of a compound precipitating out of solution when added to the cells, and to ensure reasonable pipetting volumes. […] The plate was mixed by carefully swirling and after all wells were treated and returned to the incubator overnight. If desired, separate plates/wells were treated with vehicle-only controls and/or positive controls. If using multi-well plates, controls were included on each plate. After about 18 hours, cells were harvested for further analysis, e.g., ChIP-seq, RNA-seq, ATAC-seq, etc. This protocol is a modified version of the following protocols: MagMAX mirVana Total RNA Isolation Kit User Guide (Applied Biosystems #MAN0011131 Rev B.0), NEBNext Poly(A) mRNA Magnetic Isolation Module ([…]), and NEBNext Ultra Directional RNA Library Prep Kit for Illumina ([…]) (New England Biosystems #E74901). […] Two hundred μl of Lysis Binding Mix was used per well of the multiwell plate containing adherent cells (usually a 24-well plate). For mRNA isolation and library prep, the NEBNext Poly(A) mRNA Magnetic Isolation Module and Directional Prep kit was used. RNA isolated from cells above was quantified, and prepared in […] of each sample in 50 μl of nuclease-free water. This protocol may be run in microfuge tubes or in a 96-well plate. […] Genomic alignments were converted to transcriptome alignments based on reference transcript annotations from the Human GENCODE Gene Set release 24 (Harrow et al., Genome Res. […] Standard QC were applied (read integrity, mapping statistics, library complexity, fragment bias) to remove unsatisfactory samples. Differential gene expression was computed using the negative binomial model implemented by DESeq2 version 1.16.1 (Love et al., Genome Biol. (2014) 15(12):550). […] RNA-seq signals were also normalized by read depth and visualized using the UCSC browser. To identify small molecules that modulate target gene expression, primary human hepatocytes were prepared as a monoculture, and at least one small molecule compound was applied to the cells. RNA-seq was performed to determine the effects of the compounds on the expression of the target genes in hepatocytes. Fold change was calculated by dividing the level of expression in the cell system that had been perturbed by the level of expression in an unperturbed system.

JAG1 = test: RNA-seq of JAG1 expression in compound-treated primary human hepatocytes
Description: as §8

Structure (SMILES)	LDLR Fold Change (Log2) (LDLR)	ANGPTL3 Fold Change (Log2) (ANGPTL3)	PCSK9 Fold Change (Log2) (PCSK9)	SERPINC1 Fold Change (Log2) (SERPINC1)	UGT1A1 Fold Change (Log2) (UGT1A1)	SLC37A4 Fold Change (Log2) (SLC37A4)	NOTCH2 Fold Change (Log2) (NOTCH2)	JAG1 Fold Change (Log2) (JAG1; primary human hepatocytes)	Significant modulation of JAG1 (in words) (JAG1; summary of Table 6)
CNC(=O)Nc1ccc(-c2nc(N3CC4CCC(C3)O4)c3cnn(C4CCC5(CC4)OCCO5)c3n2)cc1 [WYE-125132 (WYE-132)]	1.46	−0.42	−0.91	–	–	–	–	–	–
COCCOc1ccc2c(c1)ncn2-c1ccc2cccc(N3CCC(N)CC3)c2n1 [CP-673451]	–	–	–	2.53	1.82	1.17	–	–	–
O=c1cc(N2CCOCC2)oc2c(-c3ccccc3)cccc12 [LY294002]	0.48	0	−0.51	–	1.36	–	–	–	–
COCCOc1ccc(N2CCN(CCn3ncc4c3nc(N)n3nc(-c5ccco5)nc43)CC2)cc1 [Preladenant]	1.07	−0.73	0	–	–	–	–	–	–
CS[C@H]1SC[C@H]2C(=O)N(C)[C@@H](C(C)C)C(=O)OC[C@@H](NC(=O)c3cnc4ccccc4n3)C(=O)N[C@@H](C)C(=O)N(C)[C@@H]1C(=O)N(C)[C@@H](C(C)C)C(=O)OC[C@@H](NC(=O)c1cnc3ccccc3n1)C(=O)N[C@@H](C)C(=O)N2C [Echinomycin]	–	–	–	2.29	1.10	1.59	–	–	–
CN1CCC(CNc2ccc3ncc(-c4cccc(OC(F)(F)F)c4)n3n2)CC1 [SGI-1776]	0.48	−0.52	0	–	–	–	–	–	–
C=CC(=O)Nc1cccc(Nc2nc(Nc3ccc(N4CCN(C(C)=O)CC4)cc3OC)ncc2C(F)(F)F)c1 [CO-1686 (Rociletinib), Rociletinib]	0.51	−0.67	0	–	–	–	–	–	–
COc1cccc2c1C(=O)c1c(O)c3c(c(O)c1C2=O)C[C@@](O)(/C(CO)=N/NC(=O)CCCCCN1C(=O)C=CC1=O)C[C@@H]3O[C@H]1C[C@H](N)[C@H](O)[C@H](C)O1 [INNO-206 (aldoxorubicin), aldoxorubicin]	–	–	–	1.00	–	–	0	0.84	significantly modulate only JAG1
NS(=O)(=O)C#Cc1ccccc1 [Pifithrin-u, Pifithrin-μ]	0.60	−0.46	−0.54	0.79	–	–	–	–	–
